According to the supplement of paper PMC10307832:

Assays:
Assay in all cases: relative viability (nuclei count vs DMSO), 5 days (fraction); higher = more cells survive
[1] = compound: CCc1cnn2c(NCc3ccc[n+]([O-])c3)cc(N3CCCC[C@H]3CCO)nc12 [Dinaciclib] + CC(=O)c1c(C)c2cnc(Nc3ccc(N4CCNCC4)cn3)nc2n(C2CCCC2)c1=O [Palbociclib] (partner 0.5 µM)
Outline: (§1)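 Cells from lung cancer lines were seeded into 1536-well plates and, one day later, dosed by pin tool. Treatments were either a single drug or a fixed dose of an anchor drug with five library-drug doses (not always all listed) in √10 steps. After 5 days, nuclei were stained in a one-step fixation (final 0.05% Triton X-100, 1% formaldehyde, 1 ug/ml Hoechst) and counted on 4× images, and relative viability is the treated-to-vehicle nuclei ratio, as the median of duplicate plates.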

[2] = compound: CCc1cnn2c(NCc3ccc[n+]([O-])c3)cc(N3CCCC[C@H]3CCO)nc12 [Dinaciclib] + CCNC(=O)c1noc(-c2cc(C(C)C)c(O)cc2O)c1-c1ccc(CN2CCOCC2)cc1 [Luminespib] (partner 0.01 µM)
Outline: as §1

[3] = compound: CCc1cnn2c(NCc3ccc[n+]([O-])c3)cc(N3CCCC[C@H]3CCO)nc12 [Dinaciclib] + C[C@]1(O)C[C@@H](c2nc(-c3ccc4ccc(-c5ccccc5)nc4c3)c3c(N)nccn32)C1 [Linsitinib] (partner 1 µM)
Outline: as §1

[4] = compound: CCc1cnn2c(NCc3ccc[n+]([O-])c3)cc(N3CCCC[C@H]3CCO)nc12 [Dinaciclib] + NC(=O)Nc1cc(-c2cccc(F)c2)sc1C(=O)N[C@H]1CCCNC1 [AZD7762] (partner 0.2 µM)
Outline: as §1

[5] = compound: CCc1cnn2c(NCc3ccc[n+]([O-])c3)cc(N3CCCC[C@H]3CCO)nc12 [Dinaciclib] + O=C(c1cc(Cc2n[nH]c(=O)c3ccccc23)ccc1F)N1CCN(C(=O)C2CC2)CC1 [Olaparib] (partner 8 µM)
Outline: as §1

Cell Line	relative viability ([1]; first compound 0.009487 µM)	relative viability ([1]; first compound 0.03 µM)	relative viability ([1]; first compound 0.09487 µM)	relative viability ([1]; first compound 0.3 µM)	relative viability ([2]; first compound 0.009487 µM)	relative viability ([2]; first compound 0.03 µM)	relative viability ([2]; first compound 0.09487 µM)	relative viability ([2]; first compound 0.3 µM)	relative viability ([3]; first compound 0.009487 µM)	relative viability ([3]; first compound 0.03 µM)	relative viability ([3]; first compound 0.09487 µM)	relative viability ([3]; first compound 0.3 µM)	relative viability ([4]; first compound 0.009487 µM)	relative viability ([4]; first compound 0.03 µM)	relative viability ([4]; first compound 0.09487 µM)	relative viability ([4]; first compound 0.3 µM)	relative viability ([5]; first compound 0.009487 µM)	relative viability ([5]; first compound 0.03 µM)	relative viability ([5]; first compound 0.09487 µM)	relative viability ([5]; first compound 0.3 µM)
LCLC-97TM1	0.18	0.0731	0.0753	0.0729	0.459	0.111	0.116	0.109	0.168	0.12	0.126	0.107	0.385	0.0625	0.0497	0.0774	0.322	0.0664	0.0584	0.0621
LCLC-103H	0.402	0.441	0.208	0.192	1.08	0.473	0.12	0.102	1.13	0.934	0.18	0.172	0.881	0.351	0.279	0.197	0.775	0.361	0.227	0.198
LK-2	0.543	0.109	0.107	0.0837	0.165	0.139	0.166	0.162	0.523	0.127	0.159	0.117	0.448	0.116	0.0518	0.0532	0.615	0.0883	0.0805	0.0778
LOU-NH91	0.508	0.307	0.268	0.273	0.324	0.294	0.224	0.16	0.94	0.467	0.236	0.245	0.7	0.296	0.252	0.272	0.861	0.269	0.239	0.234
LU99A	0.383	0.124	0.138	0.106	0.177	0.149	0.12	0.124	0.336	0.154	0.145	0.141	0.322	0.11	0.106	0.115	0.199	0.112	0.117	0.125
LXF-289	0.598	0.213	0.0821	0.108	0.642	0.106	0.068	0.0731	0.994	0.315	0.0869	0.071	1.18	0.453	0.0752	0.0836	1.01	0.103	0.0785	0.0985
NCI-H23	0.304	0.167	0.0992	0.103	0.197	0.172	0.168	0.148	0.508	0.142	0.105	0.109	0.246	0.125	0.107	0.0921	0.206	0.12	0.0827	0.101
NCI-H322M	0.441	0.392	0.373	0.384	0.431	0.243	0.265	0.229	0.925	0.477	0.224	0.229	0.613	0.409	0.42	0.394	0.652	0.304	0.328	0.321
NCI-H358	0.142	0.095	0.0882	0.096	0.276	0.0982	0.0922	0.0842	0.552	0.149	0.185	0.176	0.548	0.16	0.151	0.188	0.552	0.0825	0.086	0.105
NCI-H441	0.197	0.148	0.125	0.113	0.262	0.18	0.177	0.193	0.811	0.129	0.115	0.113	1.17	0.758	0.141	0.16	0.432	0.141	0.125	0.127
NCI-H460	0.0704	0.0127	0.0174	0.0151	0.031	0.015	0.0141	0.0129	0.434	0.0071	0.0074	0.0155	0.795	0.0353	0.0383	0.0328	0.409	0.0325	0.0396	0.0408
NCI-H647	0.18	0.111	0.0539	0.0401	0.133	0.0786	0.049	0.0752	0.674	0.0709	0.0658	0.0602	0.274	0.0458	0.0377	0.0491	0.258	0.0359	0.0547	0.051
NCI-H650	0.374	0.171	0.128	0.101	0.54	0.185	0.112	0.0731	0.481	0.161	0.139	0.124	1.08	0.153	0.148	0.173	0.382	0.13	0.12	0.104
NCI-H727	0.633	0.38	0.361	0.383	0.404	0.253	0.301	0.282	0.268	0.193	0.0908	0.158	0.716	0.413	0.356	0.34	0.782	0.314	0.351	0.328
NCI-H838	0.224	0.143	0.0896	0.0812	0.295	0.134	0.104	0.0905	0.547	0.137	0.113	0.112	0.993	0.601	0.622	0.553	0.431	0.101	0.0853	0.0924
